Assay results taken from the supplement of paper PMC10307832.

How the values were obtained:
Assay in all cases: relative viability (nuclei count vs DMSO), 5 days (fraction); higher = more cells survive
RU-SKI 43 + Pemetrexed = compound: CC[C@@H](C)CNCC(=O)N1CCC2=C([C@@H]1COC3=CC=CC(=C3)C)C=CS2 [RU-SKI 43] + Nc1nc2[nH]cc(CCc3ccc(C(=O)N[C@@H](CCC(=O)O)C(=O)O)cc3)c2c(=O)[nH]1 [Pemetrexed] (partner 0.2 µM)
Summary of the method: (§1)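 Each reported value is a median over duplicate plates. It expresses relative viability: treated-well nuclei count divided by vehicle-well nuclei count. Lung cancer cell lines in 1536-well plates were dosed by pin tool a day after seeding, alone with one drug or with a fixed anchor-drug dose plus five library-drug doses (not always all listed) in √10 steps, and nuclei were counted after 5 days.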

Irinotecan + AZD7762 = compound: CCc1c2c(nc3ccc(OC(=O)N4CCC(N5CCCCC5)CC4)cc13)-c1cc3c(c(=O)n1C2)COC(=O)[C@]3(O)CC [Irinotecan] + NC(=O)Nc1cc(-c2cccc(F)c2)sc1C(=O)N[C@H]1CCCNC1 [AZD7762] (partner 0.2 µM)
Summary of the method: as §1

MK-8033 + Foretinib = compound: Cn1cc(-c2cnc3ccc4ccc(CS(=O)(=O)NCc5ccccn5)cc4c(=O)c3c2)cn1 [MK-8033] + COc1cc2c(Oc3ccc(NC(=O)C4(C(=O)Nc5ccc(F)cc5)CC4)cc3F)ccnc2cc1OCCCN1CCOCC1 [Foretinib] (partner 0.25 µM)
Summary of the method: as §1

MK-8033 + Dasatinib = compound: Cn1cc(-c2cnc3ccc4ccc(CS(=O)(=O)NCc5ccccn5)cc4c(=O)c3c2)cn1 [MK-8033] + Cc1nc(Nc2ncc(C(=O)Nc3c(C)cccc3Cl)s2)cc(N2CCN(CCO)CC2)n1 [Dasatinib] (partner 0.075 µM)
Summary of the method: as §1

Row | Cell Line | relative viability (RU-SKI 43 + Pemetrexed; first compound 0.1 µM) | relative viability (RU-SKI 43 + Pemetrexed; first compound 0.3162 µM) | relative viability (RU-SKI 43 + Pemetrexed; first compound 1 µM) | relative viability (RU-SKI 43 + Pemetrexed; first compound 3.162 µM) | relative viability (RU-SKI 43 + Pemetrexed; first compound 10 µM) | relative viability (Irinotecan + AZD7762; first compound 0.6325 µM) | relative viability (Irinotecan + AZD7762; first compound 2 µM) | relative viability (Irinotecan + AZD7762; first compound 6.325 µM) | relative viability (Irinotecan + AZD7762; first compound 20 µM) | relative viability (MK-8033 + Foretinib; first compound 0.02 µM) | relative viability (MK-8033 + Foretinib; first compound 0.06325 µM) | relative viability (MK-8033 + Foretinib; first compound 0.2 µM) | relative viability (MK-8033 + Foretinib; first compound 0.6325 µM) | relative viability (MK-8033 + Foretinib; first compound 2 µM) | relative viability (MK-8033 + Dasatinib; first compound 0.02 µM) | relative viability (MK-8033 + Dasatinib; first compound 0.06325 µM) | relative viability (MK-8033 + Dasatinib; first compound 0.2 µM) | relative viability (MK-8033 + Dasatinib; first compound 0.6325 µM) | relative viability (MK-8033 + Dasatinib; first compound 2 µM)
1 | LXF-289 | 0.924 | 0.862 | 0.939 | 0.902 | 0.999 | 1.01 | 1.05 | 0.425 | 0.192 | 0.965 | 0.934 | 0.938 | 1.04 | 0.965 | 0.197 | 0.213 | 0.208 | 0.189 | 0.215
2 | LK-2 | 0.362 | 0.343 | 0.347 | 0.245 | 0.304 | 0.316 | 0.388 | 0.222 | 0.281 | 1.05 |  | 1.13 | 1.42 | 1.08 | 0.269 |  | 0.251 | 0.376 | 0.304
3 | NCI-H2126 | 0.724 | 0.745 | 0.682 | 0.739 | 0.709 | 0.618 | 0.889 | 0.65 | 0.302 | 1.13 | 0.998 | 1.16 | 1.18 | 1.15 | 0.601 | 0.556 | 0.597 | 0.601 | 0.573
4 | NCI-H596 | 0.537 | 0.473 | 0.552 | 0.507 | 0.508 | 1.07 | 1.15 | 0.88 | 0.913 | 0.763 | 0.733 | 0.957 | 0.477 | 0.886 | 0.55 | 0.535 | 0.586 | 0.626 | 0.455
5 | NCI-H3122 | 0.202 | 0.216 | 0.198 | 0.193 | 0.19 | 0.941 | 0.34 | 0.145 | 0.139 | 0.962 | 0.958 | 0.93 | 0.908 | 0.974 | 0.734 | 0.655 | 0.586 | 0.814 | 0.876
6 | NCI-H1355 | 1.02 | 1.09 | 1.09 | 1.14 | 1.05 |  | 0.68 | 0.368 | 0.257 | 0.888 | 0.886 | 0.961 | 0.862 | 0.909 | 0.647 | 0.655 | 0.645 | 0.698 | 0.763
